Common to all, as to type: biochemical
Common to all, as to conditions: NADPH

Test [1] has as its target T1, dihydrofolate reductase (DHFR), natural-type methionine-containing (Met-DHFR) (Escherichia coli, UniProt P0ABQ4).
T1 construct: made in house; host or cells: wheat embryo extract cell-free protein synthesis (dialysis type)
T1 sequence (P0ABQ4 1-159): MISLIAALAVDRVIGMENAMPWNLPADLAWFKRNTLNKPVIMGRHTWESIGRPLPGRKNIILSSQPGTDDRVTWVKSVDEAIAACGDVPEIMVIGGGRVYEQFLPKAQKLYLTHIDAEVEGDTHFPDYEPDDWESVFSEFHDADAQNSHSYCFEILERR
Kind of test: enzymatic properties of DHFR (Table 1): Michaelis constant and maximum velocity, Met-DHFR. On the procedure:
(§1) Purification of GFP and measurement of its activity by analysis of fluorescence spectrum using a fluorospectrophotometer were carried out in accordance with a method by Deschamps, et al. [Deschamps, J. R. et al., (1995) Protein Expression and Purification, 6, 555–558]. In the measurement of fluorescence spectrum, a fluorophotometer of type RF-5000 by Shimadzu was used. DHFR activity was measured by a method of Stanley, et al. [Methods. Enzymol. 18, 195–199 (1971)].
(§2) Then enzymatic properties of the selenomethionine-containing proteins purified as such were investigated biochemically. Fluorescence emission spectrum of a certain concentration of the purified GFP preparation shown in FIG. 2 excited at the wavelength of 395 nm was measured within a range of 410 nm to 600 nm and the result is shown in FIG. 3. As will be apparent from FIG. 3, there is no difference between the fluorescence emission spectra of GFP [(A) in FIG. 3] and selenomethionine GFP [(B) in FIG. 3]. Thus, the conclusion is that the change in GFP activity by substituting methionine residue with selenomethionine is not higher than the usual measurement sensitivity. […]

For test [2], the target named is T2, dihydrofolate reductase (DHFR), Natural-Type DHFR (Escherichia coli, UniProt P0ABQ4).
T2 construct: made in house; host or cells: wheat embryo extract cell-free protein synthesis (dialysis type)
T2 sequence (P0ABQ4 1-159): T1 sequence (P0ABQ4 1-159)
Briefly: enzymatic properties of DHFR (Table 2): Michaelis constant and maximum velocity, Natural-Type DHFR. On the procedure:
as §1
Then enzymatic properties of the purified heavy hydrogen-labeled DHFR were biochemically investigated by the same manner as in Example 1. As will be apparent from Table 2, both Vmax and Michaelis constant (Km) to NADPH which are parameters for enzymatic chemical property of natural-type DHFR and heavy hydrogen-labeled DHFR show no difference between both enzymes. Thus, it became clear that DHFR comprising heavy hydrogen-labeled amino acids maintained nearly the same enzymatic activity as the natural-type DHFR.

The target of test [3] is T3, dihydrofolate reductase (DHFR), Heavy Hydrogen-Labeled DHFR (20 kinds of heavy hydrogen-labeled L-amino acids) (Escherichia coli, UniProt P0ABQ4).
T3 construct: made in house; host or cells: wheat embryo extract cell-free protein synthesis (dialysis type)
T3 sequence (P0ABQ4 1-159): T1 sequence (P0ABQ4 1-159)
Kind of test: enzymatic properties of DHFR (Table 2): Michaelis constant and maximum velocity, Heavy Hydrogen-Labeled DHFR. On the procedure:
as §1
With regard to the wheat embryo, that being contaminated with substantially no endosperm component prepared by the method mentioned in Example 1 was used. Preparation of an extract from wheat embryo was carried out by the exactly same method as Example 1 except that the solution for extraction and the solution used for gel filtration contained 20 kinds of heavy hydrogen-labeled L-amino acids instead of 20 kinds of selenomethionine-containing L-amino acids. Concentration of the prepared extract was adjusted to 170˜250 A260 nm (A260/A280=1.5).
Although the composition of the protein synthesis reaction solution is as same as that described in Example 1, it contains 20 kinds of heavy hydrogen-labeled L-amino acids instead of 20 kinds of selenomethionine-containing L-amino acids.
Then enzymatic properties of the purified heavy hydrogen-labeled DHFR were biochemically investigated by the same manner as in Example 1. […]

Test [4] deals with T4, dihydrofolate reductase (DHFR), selenomethionine-containing (SeMet-DHFR) (Escherichia coli, UniProt P0ABQ4).
T4 construct: made in house; host or cells: wheat embryo extract cell-free protein synthesis (dialysis type)
T4 sequence (P0ABQ4 1-159): T1 sequence (P0ABQ4 1-159)
Kind of test: enzymatic properties of DHFR (Table 1): Michaelis constant and maximum velocity, SeMet-DHFR. On the procedure:
as §1, §2

For the molecule `NC(=O)C1=CN([C@@H]2O[C@H](COP(=O)(O)OP(=O)(O)OC[C@H]3O[C@@H](n4cnc5c(N)ncnc54)[C@H](OP(=O)(O)O)[C@@H]3O)[C@@H](O)[C@H]2O)C=CC1` [NADPH, nicotinamide adenine dinucleotide phosphate (NADPH) of a reduced type], the “maximum velocity Vmax” value came out at 0.143 A560 nm/μg/min in test [1] and 0.137 A560 nm/μg/min in test [4]. Moreover, the Vmax is reported as 0.127 A560 nm/μg/min in test [2] and 0.261 A560 nm/μg/min in test [3].

The values above are taken from patent US7074595B2, “General means of labeling protein by using wheat embryo cell-free protein synthesis system” (CellFree Sciences Co., Ltd., priority 2000, dated 2006).
